Source: US8569243B2, “Sirtuin 6 activating peptides and cosmetic or pharmaceutical composition containing them” (ISP Investments Inc., priority 2010, dated 2013)
Where no end group is shown, it is not given here.

What was measured:
[1] = tested on: TRF2 protein; experiment: TRF2 immunolabelling in normal human fibroblasts, long-term culture; assay type: cell-based
Protocol: (§1) The goal of this study is to determine the influence of peptide SEQ ID No. 4 on TRF2 protein expression in human skin, a protein specifically associated with telomeres and involved in their maintenance. To do this, specific labeling by immunofluorescence was carried out on normal human keratinocytes (NHK) culture and on normal human fibroblast cultures on a long-term basis.
(§2) Protocol: NHK or normal human fibroblasts in culture are treated once per day with a solution at 10^−6M or at 3×10^−6M of peptide SEQ ID No. 4, between passage 5 and passage 17 (or 12 passages) for fibroblasts and between passage 1 and passage 2 (or 1 passage and 10 days of treatment) for NHK.
(§3) For immunolabelling by anti TRF2 antibodies, the cells are washed and fixed with paraformaldehyde at 3.7% for 10 minutes. The cells are then incubated in the presence of a specific anti TRF2 antibody (Abeam, ref ab13579, polyclonal mouse), and then a secondary suitable antibody, coupled with a fluorescent dye. After mounting in a particular medium, the slides are observed by epifluorescence microscope (Nikon Eclipse E 80i microscope). Fluorescence intensity is quantified by analyzing the image using the Image-Pro Analyser version 5 software.

[2] = tested on: TRF2 protein; experiment: TRF2 immunolabelling in normal human keratinocytes (NHK), long-term culture; assay type: cell-based
Protocol: as §1, §2, §3

[3] = tested on: involucrin; experiment: Epidermal differentiation marker immunolabelling in NHK: involucrin; assay type: cell-based, human; conditions: 10^−6 M or 3×10^−6 M, 2 passages and 11 days of treatment
Protocol: (§4) The goal of this study is to determine the influence of peptide SEQ ID No. 5 on epidermal differentiation. To do this, the expression of the main epidermal differentiation markers, specifically expressed in the keratinocytes of suprabasal layers cultivated on a long-term basis, was studied. The markers tested are transglutaminase 1 and involucrin.
(§5) Protocol: NHK in culture are treated once per day with a solution at 10^−6M or at 3×10^−6M of peptide SEQ ID No. 5, between passage 1 and passage 3 (or 2 passages and 11 days of treatment). The cells are then washed and fixed. After unmasking the specific sites, the cells are incubated in the presence of a specific antibody directed against TG1 (TEBU, ref sc-25786, polyclonal rabbit), a specific antibody directed against involucrin (Novocastra NCL-INV, mouse monoclonal, clone SYS), and then incubated in the presence of a suitable secondary antibody, coupled with a fluorescent dye. For greater ease of observation, the cell nuclei may be counterstained by DAPI (4′,6′ Di Amidino-2-Phenylindole), a fluorescent blue molecule capable of strongly bonding to DNA). After mounting in a particular medium, the slides are observed by epifluorescence microscope (Nikon Eclipse E 80i microscope).

[4] = tested on: sirtuin 6 (SIRT6); experiment: Sirtuin 6 immunolabelling (immunofluorescence) in normal human keratinocytes (NHK); assay type: cell-based; conditions: for SIRT6 fluorescence versus control conditions: 10^−6M or 3×10^−6 M, all conditions tested (short- and long-term); for sirtuin 6 expression stimulation effect in long-term treatment: passage 3 to passage 5
Protocol: (§6) The object of this study is to determine the influence of peptides SEQ ID No. 5 and SEQ ID No. 7 on Sirtuin 6 expression in human skin. To do this, specific labeling by immunofluorescence was carried out on normal human keratinocytes (NHK) culture and on normal human fibroblast cultures.
(§7) Protocol: NHK or normal human fibroblasts are treated once per day with a solution at 10^−6M or at 3×10^−6M of peptide SEQ ID No. 5 or peptide SEQ ID No. 7.
(§8) Short-term treatment studies for 24, 48 and 72 hours were carried out.
(§9) Long-term treatment studies were also carried out between passage 5 and passage 17 (or 12 passages) for fibroblasts and between passage 3 and passage 5 (or 2 subcultures) for NHK.
(§10) For immunolabelling by anti SIRT6 antibodies, the cells are washed and fixed with paraformaldehyde at 3.7% for 10 minutes. The cells are then incubated in the presence of a specific anti SIRT6 antibody (Abeam, ref ab62738, polyclonal rabbit), and then a secondary suitable antibody, coupled with a fluorescent dye. After mounting in a particular medium, the slides are observed by epifluorescence microscope (Nikon Eclipse E 80i microscope). Fluorescence intensity is quantified by analyzing the image using the Image-Pro Analyser version 5 software.

[5] = tested on: transglutaminase 1 (TG1); experiment: Epidermal differentiation marker immunolabelling in NHK: transglutaminase 1; assay type: cell-based, human; conditions: 10^−6 M or 3×10^−6 M, 2 passages and 11 days of treatment
Protocol: as §4, §5

[6] = tested on: sirtuin 6 (SIRT6); experiment: Sirtuin 6 immunolabelling in NHK after oxidative stress by H2O2; assay type: cell-based, human
Protocol: The goal of this study is to determine the protective effect of peptide SEQ ID No. 5 on keratinocytes during oxidative stress. To do this, the expression of Sirtuin 6 was qualitatively and quantitatively evaluated by specific immunolabelling after oxidative stress by H2O2.
Protocol: The NHK in culture are treated for 24 hours with a solution at 10^−6M or 3×10^−6M of peptide SEQ ID No. 5. The cells are then incubated in the presence of H2O2 at 2 mM, rinsed and then treated for another 24 hours with a solution at 10^−6M or 3×10^−6M of peptide SEQ ID No. 5. A control that was not treated and not subjected to the H2O2 stress (control 0), as well as a control that was not treated but was subjected to the H2O2 stress (control 1) were carried out.
For immunolabelling by anti SIRT6 antibodies, the cells are washed and fixed with paraformaldehyde at 3.7% for 10 minutes. The cells are then incubated in the presence of a specific anti SIRT6 antibody (Abcam, ref ab62738, polyclonal mouse), and then a secondary suitable antibody, coupled with a fluorescent dye. After mounting in a particular medium, the slides are observed by epifluorescence microscope (Nikon Eclipse E 80i microscope). Fluorescence intensity is quantified by analyzing the image using the Image-Pro Analyser version 5 software.

[7] = tested on: collagen III; experiment: Collagen III immunolabelling in normal human fibroblasts, long-term culture; assay type: cell-based; conditions: 10^−6M or 3×10^−6M, passage 5 to 17
Protocol: (§11) The goal of this study is to determine the influence of peptide SEQ ID No. 5 on the expression of dermal extracellular matrix molecules. To do this, the expression of collagens I and III in normal human fibroblasts cultivated on a long-term basis was studied.
(§12) Protocol: Normal human fibroblasts are treated once per day with a solution at 10^−6 M or at 3×10^−6 M of peptide SEQ ID No. 5, between passage 5 and passage 17 (or 12 passages). The cells are then washed and fixed with cold methanol for 5 minutes. After unmasking specific sites, the cells are incubated in the presence of a specific antibody directed against collagen I (TEBU, ref 600-401-103, polyclonal rabbit) or against collagen III (TEBU, ref 600-401-105, polyclonal rabbit), and then incubated in the presence of a suitable secondary antibody, coupled with a fluorescent dye. After mounting in a particular medium, the slides are observed by epifluorescence microscope (Nikon Eclipse E 80i microscope).

[8] = tested on: collagen I; experiment: Collagen I immunolabelling in normal human fibroblasts, long-term culture; assay type: cell-based; conditions: 10^−6M or 3×10^−6M, passage 5 to 17
Protocol: as §11, §12

[9] = tested on: normal human fibroblasts; experiment: Comet assay after UVB irradiation of normal human fibroblasts; assay type: cell-based; conditions: peptide 3×10^−6 M 24 h before and 24 h after UVB 60 mJ/cm^2
Protocol: The goal of this study is to determine the protective effect of peptide SEQ ID No. 5 on damage caused to the DNA by UV radiation. To do this, a comet assay, that enables damage caused to the DNA at the cellular level to be quantified, was performed.
Protocol: Normal human fibroblasts are cultured for 24 hours with the peptide of sequence SEQ ID No. 5 at a concentration of 10^−6M or 3×10^−6M, and then irradiated with UVB radiation at a rate of 60 mJ/cm^2, and then treated again for 24 hours by the peptide at a concentration of 10^−6M or 3×10^−6M. A control condition is carried out in the absence of treatment. The cells are then detached from their support by the trypsin, then centrifuged at 1200 rotations/min for 10 minutes in order to concentrate and count them.
A defined number of cells (25,000 cells) is then included in a Low Melting agarose gel at 0.75%, and then deposited on a glass slide previously covered with agarose at 1%. The slides are then immersed in a lysis solution for 1½ hours at 4° C., and then in an alkaline solution for 20 min at 4° C. The cells are thus lyzed and the DNA is denatured. […]
Quantification software enables the mean “Tail Moment” (or length of the comet tail) applied to each condition tested to be determined This parameter provides information on the level of DNA damage: the higher this parameter, the greater the DNA degradation.

[10] = tested on: sirtuin 6 (SIRT6); experiment: Sirtuin 6 immunolabelling (immunofluorescence) in normal human fibroblasts; assay type: cell-based; conditions: for SIRT6 fluorescence versus control conditions: 10^−6M or 3×10^−6 M, all conditions tested (short- and long-term); for sirtuin 6 expression stimulation effect in long-term treatment: passage 5 to passage 17
Protocol: as §6, §7, §8, §9, §10

[11] = 10^−6 M or 3×10^−6 M, long-term

Substance | TRF2 fluorescence versus control conditions [1, 11] | maximum increase of the TRF2 fluorescence with relation to the control cells ([1]; treated for 12 subcultures, 10^−6 M peptide) [%] | TRF2 fluorescence versus control conditions [2, 11] | maximum increase of the TRF2 fluorescence with relation to the control cells ([2]; treated for 10 days, 3×10^−6 M peptide) [%] | involucrin fluorescence versus control conditions [3] | SIRT6 fluorescence versus control conditions [4] | sirtuin 6 expression stimulation effect in long-term treatment [4] | maximum increase of the SIRT6 fluorescence with relation to the control cells ([4]; treated 72 hours, 3×10^−6M peptide) [%] | transglutaminase 1 fluorescence versus control conditions [5] | increase in SIRT6 expression with relation to control 1 (untreated, H2O2 stress) ([6]; peptide 3×10^−6 M 24 h before and 24 h after H2O2 2 mM) [%] | increase in SIRT6 expression with relation to control 1 (untreated, H2O2 stress) ([6]; peptide 10^−6M 24 h before and 24 h after H2O2 2 mM) [%] | collagen III fluorescence versus control conditions [7] | collagen I fluorescence versus control conditions [8] | reduction of the Tail Moment compared to the control conditions [9] [%] | SIRT6 fluorescence versus control conditions [10] | sirtuin 6 expression stimulation effect in long-term treatment [10] | maximum increase of the SIRT6 fluorescence with relation to the control cells ([10]; treated 24 hours, 10^−6 M peptide) [%]
GAGVSAE [SEQ ID No. 4] | more intense fluorescence | 63 | more intense fluorescence | 39 | – | – | – | – | – | – | – | – | – | – | – | – | –
Gly-Ala-Gly-Val-Ser-Ala-Glu-NH2 (GAGVSAE-NH2) [SEQ ID No. 5] | – | – | – | – | More intense fluorescence | more intense fluorescence | maintained for the long term | 35 | More intense fluorescence | 20 | 16 | More intense fluorescence | More intense fluorescence | 24.8 | more intense fluorescence | maintained for the long term | 47
Thr-Gln-Asn-Ile-Asp-Glu-Leu-NH2 (TQNIDEL-NH2) [SEQ ID No. 7] | – | – | – | – | – | more intense fluorescence | maintained for the long term | – | – | – | – | – | – | – | more intense fluorescence | maintained for the long term | –
